PubChem BioAssay (NCI)
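Protocol summary: plate cells (96-well), add compound at 5 concentrations, incubate 48 h, interpolate endpoints linearly. Definition used: TGI = concentration required for complete inhibition of growth.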

Columns and labels:
Experiment in all cases: NCI-60 cell line screen, 48 h
[1] = system: MDA-MB-231 breast
[2] = system: HL-60(TB) leukemia
[3] = system: SK-MEL-5 melanoma
[4] = system: OVCAR-8 ovarian
[5] = system: HT29 colon
[6] = system: PC-3 prostate
[7] = system: SN12C renal
[8] = system: SW-620 colon
[9] = system: HOP-92 NSCLC
[10] = system: SK-MEL-28 melanoma
[11] = system: UO-31 renal
[12] = system: ACHN renal
[13] = system: CCRF-CEM leukemia
[14] = system: HCC-2998 colon
[15] = system: U251 CNS
[16] = system: TK-10 renal
[17] = system: MCF7 breast
[18] = system: MDA-N
[19] = system: CAKI-1 renal
[20] = system: OVCAR-3 ovarian
[21] = system: SNB-75 CNS
[22] = system: DU-145 prostate
[23] = system: HS 578T breast
[24] = system: NCI-H522 lung
[25] = system: SR leukemia
[26] = system: SF-268 CNS
[27] = system: LOX IMVI melanoma
[28] = system: SF-539 CNS
[29] = system: A549 NSCLC
[30] = system: MOLT-4 leukemia
[31] = system: MALME-3M melanoma
[32] = system: RPMI-8226 leukemia
[33] = system: SK-OV-3 ovarian
[34] = system: UACC-257 melanoma
[35] = system: HOP-62 NSCLC
[36] = system: IGROV1 ovarian
[37] = system: A498 renal
[38] = system: EKVX NSCLC
[39] = system: RXF 393 renal
[40] = system: 786-0 renal
[41] = system: SK-MEL-2 melanoma
[42] = system: KM12 colon
[43] = system: COLO 205 colon
[44] = system: M14 melanoma
[45] = system: NCI/ADR-RES ovarian
[46] = system: T-47D breast
[47] = system: NCI-H226 lung
[48] = system: OVCAR-4 ovarian
[49] = system: BT-549 breast
[50] = system: OVCAR-5 ovarian
[51] = system: K-562 leukemia
[52] = system: SF-295 CNS
[53] = system: SNB-19 CNS
[54] = system: MDA-MB-435
[55] = system: HCT-116 colon
[56] = system: UACC-62 melanoma
[57] = system: NCI-H23 lung
[58] = system: NCI-H460 lung
[59] = system: HCT-15 colon
[60] = system: M19-MEL melanoma
[61] = system: DMS 114 small cell lung
[62] = system: DLD-1 colon
[63] = system: SNB-78 CNS
[64] = system: LXFL 529 NSCLC
[65] = system: KM20L2 colon
[66] = system: XF 498 CNS

In the case of `N#CC(c1ccnc(Cl)n1)c1nc2ccccc2s1` (centres undefined), the TGI [1] is reported as 12.3 µM, the TGI [2] is reported as 5.43 µM and the TGI [3] is reported as 3.1 µM. For the same molecule, the TGI [4] was > 41.2 µM, the TGI [5] was 10.3 µM and the TGI [6] was 26 µM. The TGI [7] was 10.1 µM, the TGI [8] was > 70.7 µM and the TGI [9] was 14.1 µM. For the same molecule, the TGI [10] was > 100 µM, the TGI [11] was 28.4 µM and the TGI [12] was > 94 µM. It also gave a TGI [13] of 0.928 µM, a TGI [14] of 46.8 µM and a TGI [15] of 13.3 µM. The TGI [16] was > 60.7 µM, the TGI [17] was 40.6 µM and the TGI [18] was 12.9 µM. For the same molecule, the TGI [19] was > 45.4 µM, the TGI [20] was 26.2 µM and the TGI [21] was 13 µM. For the same molecule, the TGI [22] was > 100 µM, the TGI [23] was 28.4 µM and the TGI [24] was 11.1 µM. For the same molecule, the TGI [25] was 28.7 µM, the TGI [26] was > 63.6 µM and the TGI [27] was > 33.9 µM. The TGI [28] was 15.1 µM, the TGI [29] was 52.4 µM and the TGI [30] was > 39.3 µM. The TGI [31] was > 26.5 µM, the TGI [32] was 25.9 µM and the TGI [33] was 16 µM. The TGI [34] was 41.2 µM, the TGI [35] was 56.8 µM and the TGI [36] was > 53.2 µM. The TGI [37] was 46.7 µM, the TGI [38] was > 74.6 µM and the TGI [39] was > 62.7 µM. The TGI [40] was 16.1 µM, the TGI [41] was 28.1 µM and the TGI [42] was > 45.9 µM. The TGI [43] was 24.6 µM, the TGI [44] was 20.4 µM and the TGI [45] was 19.7 µM. The TGI [46] was 22.4 µM, the TGI [47] was > 47.4 µM and the TGI [48] was > 100 µM. For the same molecule, the TGI [49] was > 26 µM, the TGI [50] was > 92.5 µM and the TGI [51] was 76.2 µM. For the same molecule, the TGI [52] was 31.5 µM, the TGI [53] was > 75.1 µM and the TGI [54] was > 100 µM. The TGI [55] was 9.38 µM, the TGI [56] was 15.8 µM and the TGI [57] was 15.6 µM. For the same molecule, the TGI [58] was > 100 µM and the TGI [59] was 14.8 µM.

With `CN(C)CCC(O)(c1ccccc1)C(O)(CCN(C)C)c1ccccc1` (centres undefined) the TGI [60] was > 100 µM, the TGI [3] was > 100 µM and the TGI [4] was > 100 µM. The TGI [5] was > 100 µM, the TGI [7] was > 100 µM and the TGI [8] was > 100 µM. The TGI [61] was > 100 µM, the TGI [10] was > 100 µM and the TGI [11] was > 100 µM. The TGI [12] was > 100 µM, the TGI [13] was > 100 µM and the TGI [14] was > 100 µM. The TGI [15] was > 100 µM, the TGI [16] was > 100 µM and the TGI [19] was > 100 µM. The TGI [20] was > 100 µM, the TGI [21] was > 100 µM and the TGI [62] was > 100 µM. For the same molecule, the TGI [24] was > 100 µM, the TGI [26] was > 100 µM and the TGI [63] was > 100 µM. The TGI [64] was > 100 µM, the TGI [29] was > 100 µM and the TGI [30] was > 100 µM. The TGI [31] was 32.6 µM, the TGI [32] was > 100 µM and the TGI [33] was > 100 µM. For the same molecule, the TGI [34] was 56.7 µM, the TGI [35] was > 100 µM and the TGI [36] was > 100 µM. The TGI [65] was > 100 µM, the TGI [37] was > 100 µM and the TGI [38] was > 100 µM. The TGI [40] was > 100 µM, the TGI [41] was > 100 µM and the TGI [42] was > 100 µM. For the same molecule, the TGI [43] was > 100 µM, the TGI [44] was 32.8 µM and the TGI [48] was > 100 µM. For the same molecule, the TGI [50] was > 100 µM, the TGI [51] was > 100 µM and the TGI [52] was > 100 µM. The TGI [53] was > 100 µM, the TGI [66] was > 100 µM and the TGI [56] was > 100 µM. For the same molecule, the TGI [57] was > 100 µM, the TGI [58] was > 100 µM and the TGI [59] was > 100 µM.

`COc1ccc(NC(=O)CC(=O)N2N=C(c3ccccc3)C(N=Nc3ccc(S(=O)(=O)CCOS(=O)(=O)O)cc3)C2=O)cc1` (centres undefined) was tested, and the TGI [1] was > 100 µM, the TGI [2] was > 100 µM and the TGI [3] was > 100 µM. For the same molecule, the TGI [4] was > 100 µM, the TGI [5] was > 100 µM and the TGI [6] was > 100 µM. For the same molecule, the TGI [7] was > 100 µM, the TGI [8] was > 100 µM and the TGI [9] was > 100 µM. For the same molecule, the TGI [10] was > 100 µM, the TGI [11] was > 100 µM and the TGI [12] was > 100 µM. The TGI [13] was > 100 µM, the TGI [14] was > 100 µM and the TGI [15] was > 100 µM. The TGI [16] was > 100 µM, the TGI [17] was > 100 µM and the TGI [18] was > 100 µM. The TGI [19] was > 100 µM, the TGI [20] was > 100 µM and the TGI [21] was > 100 µM. The TGI [22] was > 100 µM, the TGI [23] was > 100 µM and the TGI [24] was > 100 µM. For the same molecule, the TGI [25] was > 100 µM, the TGI [26] was > 100 µM and the TGI [27] was > 100 µM. For the same molecule, the TGI [28] was > 100 µM, the TGI [29] was > 100 µM and the TGI [30] was > 100 µM. The TGI [31] was > 100 µM, the TGI [32] was > 100 µM and the TGI [33] was > 100 µM. For the same molecule, the TGI [34] was > 100 µM, the TGI [35] was > 100 µM and the TGI [36] was > 100 µM. For the same molecule, the TGI [37] was > 100 µM, the TGI [38] was > 100 µM and the TGI [39] was > 100 µM. For the same molecule, the TGI [40] was > 100 µM, the TGI [41] was > 100 µM and the TGI [42] was > 100 µM. For the same molecule, the TGI [43] was > 100 µM, the TGI [44] was > 100 µM and the TGI [45] was > 100 µM. For the same molecule, the TGI [46] was > 100 µM, the TGI [47] was > 100 µM and the TGI [49] was > 100 µM. For the same molecule, the TGI [51] was > 100 µM, the TGI [52] was > 100 µM and the TGI [53] was > 100 µM. The TGI [54] was > 100 µM, the TGI [55] was > 100 µM and the TGI [56] was > 100 µM. For the same molecule, the TGI [57] was > 100 µM, the TGI [58] was > 100 µM and the TGI [59] was > 100 µM.
